Reference: patent US20210386668A1, “Cyclodextrin for use in the treatment and prevention of late phase bronchoconstriction in allergen-induced asthma” (Universite de Liege, priority 2020, published 2021)

Tested on: BALB/c mice, OVA induced inflammation and AHR
Assay: Ovalbumin-induced airway inflammation and AHR mouse model
Type: in vivo
Details: HPBCD 10 mM inhalation
Experimental: Two intranasal instillations of house dust mite were performed on days 0 and 7 to induce the migration of specific memory CD4+ T-cells into lung parenchyma, followed by a challenge instillation on day 14. […] The last house dust mite instillation was preceded by two days of HPBCD or PBS inhalations and followed by three inhalations until sacrifice (FIG. 1A). […] Airway responsiveness was evaluated by exposing animals to increasing doses of inhaled methacholine and by measuring Newtonian resistances representing the resistance of central or conducting airways. […] The bronchoalveolar lavage fluid (BALF) was then recovered and analyzed for cell content. […] The effect of HPBCD inhalation on T-cell numbers in lung parenchyma was investigated by flow cytometry.
Mice were lightly isoflurane-anesthetized and received an intra-nasal (i.n) instillation of HDM extract (100 μg; 50 μl) in endotoxin-free saline on days 0, 7 and 14. Mice were subjected to inhalation (generated by ultrasonic nebulizer (Devilbiss 2000)) of HPBCD 10 mM or endotoxin-free saline for 40 minutes between day 12 and 16. On day 14, they received the inhalation 1 h before the last i.n. instillation of HDM. After measurement of bronchial responsiveness using the FlexiVent System, mice were sacrificed on day 17. Mice submitted to ovalbumin as allergen were i.p injected with 10 mcg ovalbumin grade 5 and exposed to ovalbumin grade 3 by inhalation between day 21 and 25. Mice were treated with HPBCD 10 mM given by inhalation between day 19 and 25. […]
Mice were anesthetized by intraperitoneal injection with a mixture of ketamine (10 mg/ml, Merial, Brussel, Belgium) and xylazine (1 mg/ml, VMD, Arendonk, Belgium). […] Respiratory parameters following methacholine challenge (3, 6, and 12 gr/l (or 24 gr/l)) were evaluated using a 3 sec broadband signal to measure input impedance from 1 to 20.5 Hz and to calculate constant-phase model parameters (Quick-prime 3). Newtonian resistance (Rn) was the main parameter measured during the challenge. […]

CC(O)COC[C@H]1O[C@@H]2O[C@H]3[C@H](O)[C@@H](O)[C@@H](O[C@H]4[C@H](O)[C@@H](O)[C@@H](O[C@H]5[C@H](O)[C@@H](O)[C@@H](O[C@H]6[C@H](O)[C@@H](O)[C@@H](O[C@H]7[C@H](O)[C@@H](O)[C@@H](O[C@H]8[C@H](O)[C@@H](O)[C@@H](O[C@H]1[C@H](O)[C@H]2O)O[C@@H]8COCC(C)O)O[C@@H]7COCC(C)O)O[C@@H]6COCC(C)O)O[C@@H]5COCC(C)O)O[C@@H]4COCC(C)O)O[C@@H]3COCC(C)O (stereo partly drawn) [HPBCD, 2-hydroxypropyl-beta-cyclodextrin]
significantly decrease: airway hyperresponsiveness induced by ovalbumin (FIG. 2B) | number of inflammatory cells in BALF (FIG. 2C) | number of eosinophils around the bronchi (FIG. 2D)
